Assays:
intimal hyperplasia = system: intimal hyperplasia
Source text: FIG. 5A depicts the rat balloon injury experiment. H&E staining is shown. Arrowheads indicate the intima. Scale bar=200 μm. […] Scale bar=100 Neointima is highlighted. Red arrows indicate the region with high SMA expression. Yellow arrows indicate the region with low SMA expression. […] Red arrows indicate the region with high MYH11 expression. Yellow arrows indicate the region with low MYH11 expression. […] Red arrows indicate the region with high SM22α expression. Yellow arrows indicate the region with low SM22α expression. […] The “% of high expression”=ratio of “area of high expression”! “total area of intima and media”. Data are represented as mean±SD. […] Scale bar=100 μm. Neointima is highlighted.
Rat carotid artery balloon injury model and periadventitial delivery—This animal study was conducted with approval from the UW-Madison Department of Surgery Animal Care and Use Committee. Briefly, 2 mg (2 animals/group) or 10 mg (3 animals/group) of RepSox (or DMSO) dissolved in Regel (Tri-block gel) (Regel tri-block gel is described in Chen et al. “Unimolecular Micelle-Based Hybrid System for Perivascular Drug Delivery Produces Long-Term Efficacy for Neointima Attenuation in Rats,” Biomacromolecules, 2017 Jun. 14. doi: 10.1021/acs.biomac.7b00617) was applied to the outside of the injured artery segment immediately after balloon injury of the rat carotid artery. Two weeks post-surgery, arteries were collected and sectioned. The ratio of intima area versus media area and lumen area were measured by Image J.
We next examined the function of RepSox in a rat intimal hyperplasia model. In order to reduce any side effect induced by systematic drug delivery, RepSox or DMSO was dissolved in gel and then applied to the outside of the injured artery segment immediately after balloon injury of the rat carotid artery (Shi et al., 2014). Carotid arteries were collected and sectioned 14 days after surgery. […] To test the effect of RepSox, we performed qPCR analysis.

[1] = system: contractile and ECM genes (MYH11, SMTN, CNN1, ELN, ACTA2, TAGLN, COL1A1); experiment: RT-qPCR of pluripotent stem cell-derived SMCs; assay type: cell-based, human; conditions: versus previous protocol (Cheung's LM-SMCs)
Source text: Data are represented as mean±standard deviation (SD). […] Scale bar=1 mm. […] Scale bar=50 μm. […] Data are represented as mean±SD. Student's t-test, *: P<0.05, n=3.
FIGS. 9A-9B show a comparison of MYH11 expression in RepSox-SMCs and Cheung's LM-SMCs. […] Data are normalized to Cheung's LM-SMCs and represented as mean±SD, n=3 for all the samples except fresh human artery (n=2). *, p<0.05, student t-test.
Optimized smooth muscle cell differentiation—Human pluripotent stem cell cells (H1) were cultured in E8 medium on a […]™-coated plate. To achieve the best differentiation results, ES cells were split using EDTA at 1:4 ratios two days before the differentiation. The cells reached 80-90% confluency two days later. At the day of the differentiation, ES cells were dissociated by ACCUTASE™ (Invitrogen) for 3-5 min at 37 ° C. The cells were plated on a […]™-coated plate at 1:4 ratios (1×10^5 cells/cm2). […] An increased CHIR99021 concentration of 3 μM decreased cell proliferation at 36 hours but increased MYH11 expression. At 36 hours, the cells were passaged and seeded on a new […]™-coated plate (1.6×10^4 cells/cm2). The low cell density is critical for the differentiation. A cell density of 1.0-4.0×10^4 cells/cm2 for different cell lines can be tested, such that 100% cell confluence will be achieved at day 6, which gives rise to the best differentiation efficiency. […]

[2] = system: primary human aortic SMCs (AoSMCs)
Source text: Scale bar=500 μm. […] Scale bar=100 μm. […] Data are represented as mean±SD.

SMILES: Cc1cccc(-c2n[nH]cc2-c2ccc3ncccc3n2)n1 [RepSox, RepSox (SJN 2511)]
- intima/media ratio (intimal hyperplasia; 2 mg or 10 mg RepSox in gel periadventitially, 14 days after surgery, DMSO control 1.5): 0.5
- endothelia cell marker expression (qPCR) (intimal hyperplasia; injured rat carotid artery, versus DMSO): increased
- apoptosis in intima (TUNEL) (intimal hyperplasia; versus DMSO): increased
- expression of contractile proteins SMA, MYH11 and SM22α (intimal hyperplasia; versus DMSO): significantly increased
- proliferation in intima and media layer (immunostaining) (intimal hyperplasia; versus DMSO): decreased proliferation in intima but not media layer
- improvement of MYH11 expression (RT-qPCR) [1]: 23 fold
- contractile gene expression of AoSMCs ([2]; 100 μM RepSox for three days versus DMSO): increase
- proliferation rate of AoSMCs ([2]; 100 μM RepSox for two days versus DMSO): reduced
- contraction ability of AoSMCs ([2]; 100 μM RepSox for two days, then 100 μM carbachol): without affecting
- cell migration rate of AoSMCs ([2]; 100 μM RepSox versus DMSO): reduced

From patent US20190010461A1, “HUMAN PLURIPOTENT STEM CELL-BASED SCREENING FOR SMOOTH MUSCLE CELL DIFFERENTIATION AND DISEASE” (Wisconsin Alumni Research Foundation, priority 2017, published 2019)
